# Where a SMILES comes first, the peptide text is derived from it. Bridges are numbered along the chain shown (N, C = ends). [ ]: non-standard residue; d: D form. Phe(3-Cl) = N[C@@H](Cc1cccc(Cl)c1)C(=O)O; Ala(cHept) = N[C@@H](CC1CCCCCC1)C(=O)O; AllylGly = C=CC[C@H](N)C(=O)O; Orn = NCCC[C@H](N)C(=O)O; Dab = NCC[C@H](N)C(=O)O; Nva = CCC[C@H](N)C(=O)O; Dap = NC[C@H](N)C(=O)O
# Key:
# hNTS1 receptor = biological target: T1, hNTS1 receptor (Homo sapiens, UniProt P30989); assay: Competitive radioligand binding assay on the hNTS1 receptor; details: displacement of 125I-[Tyr3]-NT, membranes of CHO-K1 cells expressing hNTS1; read-out: IC50 NTS1
# T1 construct: membranes prepared from them
# Protocol: (§1) CHO-K1 (Chinese Hamster Ovary) cells stably expressing hNTS1 and 1321N1 cells stably expressing hNTS2 (ES-690-C and ES-691-C from PerkinElmer, Montréal, Canada) were cultured respectively in Ham's F12 and in DMEM culture media. Culture media were supplemented with 10% FBS, 100 U/mL penicillin, 100 μg/mL streptomycin, 20 mM HEPES, and 0.4 mg/mL G418 at 37° C. in a humidified chamber at 5% CO2.
# (§2) The cells expressing hNTS1 were frozen when they reached 80% confluency. They were scrapped off the dish with 10 mM Tris buffer, 1 mM EDTA, pH 7.5 and centrifuged at 15,000 g for 5 min at 4° C. The pellet was then re-suspended in 1 mL binding buffer. The cells expressing hNTS2 were also frozen when they reached 80% confluency. They were scraped off the dish with PBS, 0.5 mM EDTA, pH 7.5 and sonicated for 5 minutes (pulse 30 s/5 s off, amplitude 40%). They were ultracentrifuged at 100 000 g for 60 minutes at 4° C. The pellet was re-suspended in 1 mL freezing buffer (PBS, glycerol, 0.5 mM EDTA), sonicated for 1 minute (pulse 30 s/5 s off, amplitude 50%) and further diluted in binding buffer. Competitive radioligand binding experiments were performed by incubating 15 μg of cell membranes expressing the hNTS1 receptor with […] of ^125I-[Tyr^3]-NT (2200 Ci/mmol) or 50 μg of cell membranes expressing the hNTS2 receptor with […] of ^125I-[Tyr^3]-NT in binding buffer (50 mM Tris-HCl, pH 7.5, 0.2% BSA) in the presence of increasing concentrations of analogues ranging from 10^−11 to 10^−4 M for 60 min at 25° C. After incubation, the binding reaction mixture was transferred in PEI-coated 96-well filter plates (glass fiber filters GF/B, Millipore, Billerica, MA). Reaction was terminated by filtration, and plates were washed three times with 200 μL ice-cold binding buffer. Glass filters were then counted using a γ-counter (2470 Wizard2, PerkinElmer, Mississauga, Ontario, Canada). Non-specific binding was measured in the presence of 10^−5 M unlabeled NT (8-13) and represented less than 5% of total binding. IC50 values were determined from competition curves as the unlabeled ligand concentration inhibiting 50% of ^125I-[Tyr^3]-NT-specific binding.
# (§3) Competitive radioligand binding data were plotted using the nonlinear regression One-site-Fit Log(IC50) and represented the mean±SEM of at least three independent experiments in triplicates.
# hNTS2 receptor = biological target: T2, hNTS2 receptor (Homo sapiens, UniProt O95665); assay: Competitive radioligand binding assay on the hNTS2 receptor; details: for IC50: displacement of 125I-[Tyr3]-NT, membranes of 1321N1 cells expressing hNTS2, read-out: IC50 NTS2 (converted); for Selectivity: ratio IC50 for NTS1 : IC50 for NTS2
# T2 construct: membranes prepared from them
# Protocol: as §1, §2, §3
# T2 sequence (O95665 whole entry): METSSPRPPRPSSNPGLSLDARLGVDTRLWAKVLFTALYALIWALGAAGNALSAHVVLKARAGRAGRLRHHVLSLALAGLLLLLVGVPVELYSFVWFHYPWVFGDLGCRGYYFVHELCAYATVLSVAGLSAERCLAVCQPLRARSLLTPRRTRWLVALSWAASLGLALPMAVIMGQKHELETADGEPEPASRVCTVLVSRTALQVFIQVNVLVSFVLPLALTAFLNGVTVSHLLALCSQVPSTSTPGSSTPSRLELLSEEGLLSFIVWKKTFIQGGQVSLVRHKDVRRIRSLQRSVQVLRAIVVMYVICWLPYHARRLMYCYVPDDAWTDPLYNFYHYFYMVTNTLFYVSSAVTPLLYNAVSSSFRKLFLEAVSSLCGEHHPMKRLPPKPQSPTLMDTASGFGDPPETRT
# T1 sequence (P30989 whole entry): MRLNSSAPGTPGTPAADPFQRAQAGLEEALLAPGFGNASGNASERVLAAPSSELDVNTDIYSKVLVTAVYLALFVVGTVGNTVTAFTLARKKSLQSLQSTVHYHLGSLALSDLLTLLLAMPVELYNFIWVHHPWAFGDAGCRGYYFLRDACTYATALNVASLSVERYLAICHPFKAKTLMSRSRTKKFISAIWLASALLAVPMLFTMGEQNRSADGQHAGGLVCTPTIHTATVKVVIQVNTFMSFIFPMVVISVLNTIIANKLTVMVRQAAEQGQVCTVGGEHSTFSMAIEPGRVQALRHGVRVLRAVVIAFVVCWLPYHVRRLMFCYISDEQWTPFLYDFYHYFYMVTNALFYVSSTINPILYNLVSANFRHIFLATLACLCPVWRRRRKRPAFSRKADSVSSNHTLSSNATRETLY
SMILES,IC50 (hNTS1 receptor),IC50 (hNTS2 receptor),Selectivity (hNTS2 receptor)
"CC(C)C[C@H](NC(=O)[C@H](Cc1cccc(Cl)c1)NC(=O)[C@@H]1CC=CC[C@H](N)C(=O)N[C@@H](CCCCN)C(=O)N[C@@H](CCCCN)C(=O)N1)C(=O)O [compound 113, c[G(All)KKG(All)]F(3-chloro)L] (H-[AllylGly]KK[AllylGly][Phe(3-Cl)]L-OH; staple 1-4)",> 100 µM,0.048 µM,>2084
"CCC[C@@H]1NC(=O)[C@@H](N)CC=CC[C@@H](C(=O)N[C@@H](Cc2ccc(O)cc2)C(=O)N[C@@H](CC(C)C)C(=O)O)NC(=O)[C@H](CCCCN)NC1=O [compound 86, c[G(All)NvaKG(All)]YL] (H-[AllylGly][Nva]K[AllylGly]YL-OH; staple 1-4)",> 100 µM,0.743 µM,>135
"CC(C)C[C@H](NC(=O)[C@H](Cc1ccc(O)cc1)NC(=O)[C@@H]1CNC(=O)CC[C@H](N)C(=O)N[C@@H](CCCCN)C(=O)N[C@@H](CCCCN)C(=O)N1)C(=O)O [compound 102, c[EKKDap]YL] (H-EKK[Dap]YL-OH; lactam 1-4)",> 100 µM,–,–
"CC(C)C[C@H](NC(=O)[C@H](Cc1ccc(O)cc1)NC(=O)[C@@H]1CC=CC[C@H](N)C(=O)N[C@@H](CCCCN)C(=O)N[C@@H](CCN)C(=O)N1)C(=O)O [compound 52, c[G(All)KDabG(All)]YL] (H-[AllylGly]K[Dab][AllylGly]YL-OH; staple 1-4)",> 100 µM,0.244 µM,>409.3
"CC(C)C[C@H](NC(=O)[C@H](Cc1ccc(O)cc1)NC(=O)[C@@H]1CCCNC(=O)C[C@H](N)C(=O)N[C@@H](CCCCN)C(=O)N[C@@H](CCCCN)C(=O)N1)C(=O)O [compound 107, c[DKKOrn]YL] (H-DKK[Orn]YL-OH; lactam 1-4)",> 100 µM,–,–

# Second part, the compound after the results:
IC50 (hNTS1 receptor),IC50 (hNTS2 receptor),Selectivity (hNTS2 receptor),SMILES
> 100 µM,0.00685 µM,>14 600,"NCCCC[C@@H]1NC(=O)[C@H](CCCCN)NC(=O)[C@@H](N)CC=CC[C@@H](C(=O)N[C@@H](Cc2ccc(O)cc2)C(=O)N[C@@H](CC2CCCCCC2)C(=O)O)NC1=O [compound 68, c[G(All)KKG(All)]YA(cycloheptyl)] (H-[AllylGly]KK[AllylGly]Y[Ala(cHept)]-OH; staple 1-4)"
> 100 µM,4.5 µM,>22,"CC(C)C[C@H](NC(=O)[C@H](Cc1ccc(O)cc1)NC(=O)[C@@H]1CCC(=O)NCCC[C@H](N)C(=O)N[C@@H](CCCCN)C(=O)N[C@@H](CCCCN)C(=O)N1)C(=O)O [compound 100, c[OrnKKE]YL] (H-[Orn]KKEYL-OH; lactam 1-4)"
> 100 µM,0.0096 µM,10428,"CC1(C(=O)N[C@@H](Cc2ccc(Br)cc2)C(=O)N[C@@H](CC2CCCC2)C(=O)O)CCCC=CCCC(=O)N[C@@H](CCCCN)C(=O)N[C@@H](CCCCN)C(=O)N1 (stereo partly drawn) [compound 137, c[K(Pentenoyl)KG(alpha-Me-(4-pentenyl))]F(4-bromo)A (cyclopentyl)]"
> 100 µM,–,–,"CC(C)C[C@H](NC(=O)[C@H](Cc1ccc(O)cc1)NC(=O)[C@@H]1CCCCNC(=O)C[C@H](N)C(=O)N[C@@H](CCCCN)C(=O)N[C@@H](CCCCN)C(=O)N1)C(=O)O [compound 109, c[DKKK]YL] (H-DKKKYL-OH; lactam 1-4)"
> 100 µM,–,–,"CC(C)C[C@H](NC(=O)[C@H](Cc1ccc(O)cc1)NC(=O)[C@@H]1CCCNC(=O)CC[C@H](N)C(=O)N[C@@H](CCCCN)C(=O)N[C@@H](CCCCN)C(=O)N1)C(=O)O [compound 106, c[EKKOrn]YL] (H-EKK[Orn]YL-OH; lactam 1-4)"
> 100 µM,–,–,"CC(C)C[C@H](NC(=O)[C@H](Cc1ccc(O)cc1)NC(=O)[C@@H]1CCCCNC(=O)CC[C@H](N)C(=O)N[C@@H](CCCCN)C(=O)N[C@@H](CCCCN)C(=O)N1)C(=O)O [compound 108, c[EKKK]YL] (H-EKKKYL-OH; lactam 1-4)"
> 100 µM,–,–,"CC(=O)Oc1ccc(C[C@H](NC(=O)[C@@H]2CC=CC[C@H](N)C(=O)N[C@@H](CCCCN)C(=O)N[C@@H](CCCCN)C(=O)N2)C(=O)N[C@@H](CC(C)C)C(=O)O)cc1 [compound 15, c[G(All)KKG(All)]Y(OAc)L] (H-[AllylGly]KK[AllylGly]Y(Ac)L-OH; staple 1-4)"
